In PubChem BioAssay AID1745844 (Carcinogenic Potency Database (CPDB), 2022):
Activity calls are given as the source filed them. How the calls were made is not given here.

System: rodent lifetime carcinogenesis bioassay, tumor incidence TD50
Experiment: chronic cancer bioassays in animals – CPDB, compiled studies (AID 1745844)

O=C(O)C1=NN(c2ccc(S(=O)(=O)O)cc2)C(=O)C1N=Nc1ccc(S(=O)(=O)O)cc1 (stereo not drawn)
inactive: TD50 (mouse, strain Charles River CD1, females, in feed, site: all sites, lesion: malignant lymphoma, lymphocytic type, dosed 104 weeks, study length 104 weeks) 1430 mg/kg/day | carcinogen call (mouse, strain Charles River CD1, females, in feed, site: any site (literature study), lesion: benign tumor, dosed 104 weeks, study length 104 weeks) negative | TD50 (mouse, strain Charles River CD1, females, in feed, site: any site (literature study), lesion: malignant tumor, dosed 104 weeks, study length 104 weeks) 1560 mg/kg/day | carcinogen call (mouse, strain Charles River CD1, females, in feed, site: liver, lesion: hepatocellular adenocarcinoma, dosed 104 weeks, study length 104 weeks) negative | TD50 (mouse, strain Charles River CD1, females, in feed, site: liver, lesion: hepatocellular adenoma, dosed 104 weeks, study length 104 weeks) 200000 mg/kg/day | carcinogen call (mouse, strain Charles River CD1, females, in feed, site: lung, lesion: alveolar/bronchiolar adenocarcinoma, dosed 104 weeks, study length 104 weeks) negative | carcinogen call (mouse, strain Charles River CD1, females, in feed, site: lung, lesion: alveolar/bronchiolar adenoma, dosed 104 weeks, study length 104 weeks) negative | TD50 (mouse, strain Charles River CD1, males, in feed, site: all sites, lesion: malignant lymphoma, lymphocytic type, dosed 104 weeks, study length 104 weeks) 11800 mg/kg/day | TD50 (mouse, strain Charles River CD1, males, in feed, site: any site (literature study), lesion: benign tumor, dosed 104 weeks, study length 104 weeks) 388 mg/kg/day | TD50 (mouse, strain Charles River CD1, males, in feed, site: any site (literature study), lesion: malignant tumor, dosed 104 weeks, study length 104 weeks) 1810 mg/kg/day | TD50 (mouse, strain Charles River CD1, males, in feed, site: liver, lesion: hepatocellular adenocarcinoma, dosed 104 weeks, study length 104 weeks) 61100 mg/kg/day | TD50 (mouse, strain Charles River CD1, males, in feed, site: liver, lesion: hepatocellular adenoma, dosed 104 weeks, study length 104 weeks) 2150 mg/kg/day | carcinogen call (mouse, strain Charles River CD1, males, in feed, site: lung, lesion: alveolar/bronchiolar adenocarcinoma, dosed 104 weeks, study length 104 weeks) negative | TD50 (mouse, strain Charles River CD1, males, in feed, site: lung, lesion: alveolar/bronchiolar adenoma, dosed 104 weeks, study length 104 weeks) 42500 mg/kg/day | carcinogen call (rat, strain F344/DuCrj, females, in drinking water, site: any site (literature study), lesion: one or several types, types not named, dosed 104 weeks, study length 112 weeks) negative | carcinogen call (rat, strain F344/DuCrj, females, in drinking water, site: liver, lesion: neoplastic nodule, dosed 104 weeks, study length 112 weeks) negative | TD50 (rat, strain F344/DuCrj, females, in drinking water, site: uterus, lesion: endometrial stromal polyp, dosed 104 weeks, study length 112 weeks) 5780 mg/kg/day | TD50 (rat, strain F344/DuCrj, males, in drinking water, site: abdominal cavity, lesion: mesothelioma, dosed 104 weeks, study length 112 weeks) 2820 mg/kg/day | carcinogen call (rat, strain F344/DuCrj, males, in drinking water, site: any site (literature study), lesion: one or several types, types not named, dosed 104 weeks, study length 112 weeks) negative | carcinogen call (rat, strain F344/DuCrj, males, in drinking water, site: liver, lesion: hepatocellular carcinoma, dosed 104 weeks, study length 112 weeks) negative | carcinogen call (rat, strain F344/DuCrj, males, in drinking water, site: liver, lesion: neoplastic nodule, dosed 104 weeks, study length 112 weeks) negative | carcinogen call (rat, strain Not specified, females, in feed, site: any site (literature study), lesion: several types, types named in the paper, dosed 64 weeks, study length 64 weeks) negative | carcinogen call (rat, strain Not specified, females, in feed, site: liver, lesion: one or several types, types not named, dosed 64 weeks, study length 64 weeks) negative | carcinogen call (rat, strain Not specified, males, in feed, site: any site (literature study), lesion: several types, types named in the paper, dosed 64 weeks, study length 64 weeks) negative | carcinogen call (rat, strain Not specified, males, in feed, site: liver, lesion: one or several types, types not named, dosed 64 weeks, study length 64 weeks) negative | carcinogen call (rat, strain Osborne-Mendel, both sexes, in feed, site: any site (literature study), lesion: malignant tumor, dosed 104 weeks, study length 104 weeks) negative | carcinogen call (rat, strain Osborne-Mendel, both sexes, in feed, site: any site (literature study), lesion: several types, types named in the paper, dosed 104 weeks, study length 104 weeks) negative | TD50 (rat, strain Osborne-Mendel, both sexes, in feed, site: liver, lesion: adenoma, dosed 104 weeks, study length 104 weeks) 231000 mg/kg/day
